From article PMC12172450, “Moonlighting activity of threonine synthase in cyanobacterial cell death” (mSystems, 2025)

Key:
[1] = target: T1, ThrC (threonine synthase; ThrC-His6) (Microcystis aeruginosa, UniProt A0AB33BYK2); assay: in vitro threonine deaminase assay, inhibition; type: biochemical; conditions: threonine as substrate; concentration-dependent inhibition
T1 construct: gene BH695_2536; full-length thrC (1,304 bp), N-terminal His6 tag from pET-28b(+), E. coli BL21(DE3), Ni-NTA purified; tag cleavage not mentioned
T1 sequence (A0AB33BYK2 entry or part of it): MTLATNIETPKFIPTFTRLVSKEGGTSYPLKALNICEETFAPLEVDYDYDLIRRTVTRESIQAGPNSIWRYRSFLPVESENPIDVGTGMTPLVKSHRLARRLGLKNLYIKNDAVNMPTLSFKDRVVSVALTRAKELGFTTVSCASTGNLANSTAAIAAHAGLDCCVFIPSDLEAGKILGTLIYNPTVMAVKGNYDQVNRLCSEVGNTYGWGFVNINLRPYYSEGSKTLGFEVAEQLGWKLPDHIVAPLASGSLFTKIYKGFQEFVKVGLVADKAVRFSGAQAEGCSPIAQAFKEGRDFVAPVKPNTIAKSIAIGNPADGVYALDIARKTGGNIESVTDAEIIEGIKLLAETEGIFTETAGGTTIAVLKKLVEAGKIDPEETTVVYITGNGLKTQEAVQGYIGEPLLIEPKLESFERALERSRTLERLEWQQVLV

[2] = target: T1, ThrC (threonine synthase; ThrC-His6); assay: alpha-ketobutyrate formation (semicarbazide / […],4-DNPH), threonine deaminase activity, sigmoidal fit; type: biochemical; conditions: 50 mM PIPES pH 8.0, 100 mM KCl, 0.1 mM EDTA, 1 mM DTT, PLP, 25 °C; sigmoidal kinetics
[3] = target: T1, ThrC (threonine synthase; ThrC-His6); assay: yellow colour of purified enzyme; PLP-dependent threonine deamination spectra; type: binding; conditions: threonine as substrate; 50 mM PIPES pH 8.0

CC[C@H](C)[C@H](N)C(=O)O [isoleucine]
inhibition [1]: alanine and isoleucine, also exhibited concentration-dependent inhibitory activity against aKB-generating deaminases

C[C@@H](O)[C@H](N)C(=O)O [threonine]
K0.5 [2]: The sigmoidal kinetics of ThrC as a threonine deaminase were analyzed in the presence of threonine

C[C@H](N)C(=O)O [alanine]
inhibition [1]: alanine and isoleucine, also exhibited concentration-dependent inhibitory activity against aKB-generating deaminases

Cc1ncc(COP(=O)(O)O)c(C=O)c1O [PLP]
yellow colour of purified enzyme; PLP-dependent threonine deamination spectra [3]: threonine synthase could utilize PLP as a catalyst to degrade threonine into keto acids
